Assay results taken from ChEMBL document CHEMBL1212741, “Comparative efficacies of two antimony regimens to treat Leishmania braziliensis-induced cutaneous Leishmaniasis in rhesus macaques (Macaca mulatta)” (Antimicrob Agents Chemother, 2010).
Calls of active or inactive are those of the source. No cut-off for these calls is given here.

Experiments:
[1] = Drug level in liver of Leishmania braziliensis MHOM/BR/2000/CP13396 infected rhesus monkey at 5 mg/kg, im qd for 21 days administered 9 weeks postinfection measured 55 days after compound dosing; type: ADME, organism-based, Macaca mulatta; set-up: dose 5 mg/kg, route intramuscular; settings: in vivo, 1320 h
[2] = Drug level in spleen of Leishmania braziliensis MHOM/BR/2000/CP13396 infected rhesus monkey at 5 mg/kg, im qd for 21 days administered 9 weeks postinfection measured 55 days after compound dosing; type: ADME, organism-based, Macaca mulatta; set-up: dose 5 mg/kg, route intramuscular; settings: in vivo, 1320 h
[3] = Drug level in kidney of Leishmania braziliensis MHOM/BR/2000/CP13396 infected rhesus monkey at 5 mg/kg, im qd for 21 days administered 9 weeks postinfection measured 55 days after compound dosing; type: ADME, organism-based, Macaca mulatta; set-up: dose 5 mg/kg, route intramuscular; settings: in vivo, 1320 h
[4] = Drug level in liver of Leishmania braziliensis MHOM/BR/2000/CP13396 infected rhesus monkey at 5 mg/kg, im qd for 21 days administered 9 weeks postinfection measured 95 days after compound dosing; type: ADME, organism-based, Macaca mulatta; set-up: dose 5 mg/kg, route intramuscular; settings: in vivo, 2280 h
[5] = Drug level in spleen of Leishmania braziliensis MHOM/BR/2000/CP13396 infected rhesus monkey at 5 mg/kg, im qd for 21 days administered 9 weeks postinfection measured 95 days after compound dosing; type: ADME, organism-based, Macaca mulatta; set-up: dose 5 mg/kg, route intramuscular; settings: in vivo, 2280 h
[6] = Drug level in kidney of Leishmania braziliensis MHOM/BR/2000/CP13396 infected rhesus monkey at 5 mg/kg, im qd for 21 days administered 9 weeks postinfection measured 95 days after compound dosing; type: ADME, organism-based, Macaca mulatta; set-up: dose 5 mg/kg, route intramuscular; settings: in vivo, 2280 h
[7] = Drug level in liver of Leishmania braziliensis MHOM/BR/2000/CP13396 infected rhesus monkey at 20 mg/kg, im qd for 21 days administered 9 weeks postinfection measured 55 days after compound dosing; type: ADME, organism-based, Macaca mulatta; set-up: dose 20 mg/kg, route intramuscular; settings: in vivo, 1320 h
[8] = Drug level in spleen of Leishmania braziliensis MHOM/BR/2000/CP13396 infected rhesus monkey at 20 mg/kg, im qd for 21 days administered 9 weeks postinfection measured 55 days after compound dosing; type: ADME, organism-based, Macaca mulatta; set-up: dose 20 mg/kg, route intramuscular; settings: in vivo, 1320 h
[9] = Drug level in kidney of Leishmania braziliensis MHOM/BR/2000/CP13396 infected rhesus monkey at 20 mg/kg, im qd for 21 days administered 9 weeks postinfection measured 55 days after compound dosing; type: ADME, organism-based, Macaca mulatta; set-up: dose 20 mg/kg, route intramuscular; settings: in vivo, 1320 h
[10] = Drug level in liver of Leishmania braziliensis MHOM/BR/2000/CP13396 infected rhesus monkey at 20 mg/kg, im qd for 21 days administered 9 weeks postinfection measured 95 days after compound dosing; type: ADME, organism-based, Macaca mulatta; set-up: dose 20 mg/kg, route intramuscular; settings: in vivo, 2280 h
[11] = Drug level in spleen of Leishmania braziliensis MHOM/BR/2000/CP13396 infected rhesus monkey at 20 mg/kg, im qd for 21 days administered 9 weeks postinfection measured 95 days after compound dosing; type: ADME, organism-based, Macaca mulatta; set-up: dose 20 mg/kg, route intramuscular; settings: in vivo, 2280 h
[12] = Drug level in kidney of Leishmania braziliensis MHOM/BR/2000/CP13396 infected rhesus monkey at 20 mg/kg, im qd for 21 days administered 9 weeks postinfection measured 95 days after compound dosing; type: ADME, organism-based, Macaca mulatta; set-up: dose 20 mg/kg, route intramuscular; settings: in vivo, 2280 h
Rhesus monkey [13] = assay: Toxicity in Leishmania braziliensis MHOM/BR/2000/CP13396 infected rhesus monkey assessed as incidence of toxicity symptoms at 5 mg/kg, im qd for 21 days administered 9 weeks postinfection; type: organism-based, Macaca mulatta; set-up: dose 5 mg/kg, route intramuscular; settings: in vivo
Rhesus monkey [14] = assay: Toxicity in Leishmania braziliensis MHOM/BR/2000/CP13396 infected rhesus monkey assessed as incidence of toxicity symptoms at 20 mg/kg, im qd for 21 days administered 9 weeks postinfection; type: organism-based, Macaca mulatta; set-up: dose 20 mg/kg, route intramuscular; settings: in vivo
Rhesus monkey [15] = assay: Hepatotoxicity in Leishmania braziliensis MHOM/BR/2000/CP13396 infected rhesus monkey assessed as incidence of hepatocellular acidophilic necrosis at 5 mg/kg, im qd for 21 days administered 9 weeks postinfection; type: toxicity, organism-based, Macaca mulatta; set-up: dose 5 mg/kg, route intramuscular; settings: in vivo
Rhesus monkey [16] = assay: Hepatotoxicity in Leishmania braziliensis MHOM/BR/2000/CP13396 infected rhesus monkey assessed as incidence of hepatocellular acidophilic necrosis at 20 mg/kg, im qd for 21 days administered 9 weeks postinfection; type: toxicity, organism-based, Macaca mulatta; set-up: dose 20 mg/kg, route intramuscular; settings: in vivo
Leishmania braziliensis [17] = assay: […] activity against Leishmania braziliensis MHOM/BR/2000/CP13396 infected Rhesus monkey assessed as total decrease in parasite-induced skin lesions at 20 mg/kg, intramuscular daily for 21 days administered 9 weeks post infection; type: functional, organism-based; set-up: dose 20 mg/kg
Leishmania braziliensis [18] = assay: […] activity against Leishmania braziliensis MHOM/BR/2000/CP13396 infected Rhesus monkey assessed as relapse in parasite-induced skin lesions at 5 mg/kg, intramuscular daily for 21 days administered 9 weeks post infection; type: functional, organism-based; set-up: dose 5 mg/kg

| Sequence | Drug uptake [1] [ng/g] | Drug uptake [2] [ng/g] | Drug uptake [3] [ng/g] | Drug uptake [4] [ng/g] | Drug uptake [5] [ng/g] | Drug uptake [6] [ng/g] | Drug uptake [7] [ng/g] | Drug uptake [8] [ng/g] | Drug uptake [9] [ng/g] | Drug uptake [10] [ng/g] | Drug uptake [11] [ng/g] | Drug uptake [12] [ng/g] | Activity (Rhesus monkey [13]) | Activity (Rhesus monkey [14]) | Activity (Rhesus monkey [15]) | Activity (Rhesus monkey [16]) | inhibition (Leishmania braziliensis [17]) | Activity (Leishmania braziliensis [18]) [%] |
| --- | --- | --- | --- | --- | --- | --- | --- | --- | --- | --- | --- | --- | --- | --- | --- | --- | --- | --- |
| MEGLUMINE ANTIMONATE [listing 1 of 2 here] | 2913 | 1433 | 500 | 669.3 | 476.7 | 152 | 4800 | 1593 | 698.3 | 1800 | 2220 | 313 | Non-toxic | Non-toxic | Toxic | Toxic | – | – |
| MEGLUMINE ANTIMONATE [listing 2 of 2 here] | – | – | – | – | – | – | – | – | – | – | – | – | – | – | – | – | Active | 50 |
